In series [1] the test system is LIM2537 (colon carcinoma) xenograft. Description: LIM2537 tumor xenograft in nude mice. It counts as in vivo, BALB/c nude mice. The following applies: i.p. three times weekly. On the procedure:
Tumor cell lines LIM2537, U87MGΔ2–7EGFR or H1437 were collected by trypsinization, counted and injected at 5 × 10^6 cells/ site subcutaneously on both flanks of BALB/c nude mice. Treatment with vehicle control or WEHI-7326 at given dose was initiated after 5 days. Drug or vehicle (100 μl) was injected intraperitoneally three times weekly. Control group and treatment group consisted of 8 mice each. Tumors were measured twice weekly with calipers. Tumor volumes were estimated using the modified ellipsoid formula V = 1/2 (length × width^2). The experiments were terminated when tumors in the control group started ulcerating or exceeded 17 mm in length, in line with the LICR/DoS Animal Ethics Committee guidelines (11/05 A).

Series [2] deals with LoVo (colon carcinoma) xenograft. Description: LoVo tumor xenograft in nude mice. In kind it is in vivo, Balb/c nude mice. The protocol: LoVo (4 × 10^6), PC3 (3 × 10^6) or MDA-MB-231 LNA DRE (10^6) cells were collected by trypsination and injected with 50 μl 1:1 PBS:Matrigel (v/v) subcutaneously on the right flank of 18 female (LoVo), 40 male (PC3) or into 4th mammary fat pad of 40 female (MDA231) Balb/c nude mice. Tumor growth was monitored and average tumor size at commencement of dosing was 100 mm^3. Mice were randomized into 3 arms of each 5 (LoVo), 10 (PC3) or 12 (MDA23) mice respectively and treatment with vehicle (saline), WEHI-7326 (biweekly) or docetaxel (weekly) was administered via tail vein injection. Tumor volumes were measured at least twice weekly with calipers and the experiments were terminated when tumors in the control group started exceeding 1500 mm^3. For LoVo, both vehicle and 25 mg/kg WEHI-7326 groups were harvested 24 h, but 20 mg/kg WEHI-7326 group harvested 1 h post final dose. For PC3, docetaxel group was not harvested in an attempt to grow out resistant tumors.

The nature of a further series: HepG2 cytotoxic assay. It counts as cell-based. The settings on record: human; HepG2 cells, cell viability after 48 h. The protocol: a Chemical structures of the triazine-based anti-mitotics used in this study. b Dose-dependent antiproliferative activity of key derivatives and comparison with commonly used anti-mitotics in SW480 cell line: Data shown is cell viability (as measured by CellTiterGlo) after 72 h relative to untreated control cells. Shown is mean of 3 independent experiments performed in duplicate +/- SEM. c Dose-dependent cell cycle analysis of key derivatives of WEHI-7326 development in SW480 cell line. Data are presented as percentage of cells in G2/M or subG0 after 24 h incubation with titration of inhibitors as assessed by PI staining and flow cytometry. Mean average of 3 experiments +/- SEM. d Comparison of IC50 and EC50 values of triazine compounds and anti-mitotic drugs in SW480 cell line: inhibition of cellular proliferation and cell cycle arrest in G2/M. IC50 and EC50 values are the mean of 3 independent experiments run in duplicates +/- SEM (n.d. = not determined). e HepG2 cytotoxic assay: cell viability assay after 48 h, normalised to 0.4% DMSO (100% viability) and 2 μM bortezomib (0% viability). The data is the mean average of 2 experiments +/- SD.

Series [3] deals with spontaneous neuroblastoma in Th-MYCN transgenic mice. The series can be described thus: Th-MYCN transgenic mouse model of neuroblastoma. In kind it is in vivo. The following applies: WEHI-7326 20 mg/kg i.v. twice weekly, standard-of-care combinations daily i.p. for 5 days. The protocol:
All animal studies were performed in accordance with the guidelines approved by University of New South Wales Animal Care and Ethics Committee (ACEC 17/53B) and in accordance with the requirements of the Australian Code for the Care and Use of Animals for Scientific Purposes. PDX models COG-N-440x and COG-N-496x were obtained from the Childhood Cancer Repository, Texas Tech University Health Sciences Center in Lubbock, TX, USA. 6–8 week old female NSG mice were engrafted by subcutaneous injection with 1 × 10^6 freshly thawed PDX tumor cells into one flank in a mixture of 100 μl RPMI-1640 and 100 μl Matrigel. Mice were monitored for tumor development three times weekly and tumor size measured using digital Vernier calipers. Treatments commenced when tumors reached 50 mm^3, following randomization into treatment arms. […] Mice were treated with either vincristine (0.5 mg/kg, once weekly i.p. in sterile saline for up to 5 weeks), WEHI-7326 (20 mg/kg; twice weekly i.v. in sterile saline for up to 5 weeks) or vehicle (as for WEHI-7326). For the Th-MYCN transgenic mouse model, spontaneous tumor growth in mice homozygous for the MYCN transgene was assessed by abdominal palpation at least twice a week. Treatments commenced once a small palpable tumor (~5 mm) was detected, following randomization to treatment arms. Mice were euthanized upon detection of an abdominal tumor of ~1 cm in diameter. […]

Some results are limits rather than exact numbers.

In the case of `COc1ccc(CNc2nc(NCc3ccc(CN)cc3)nc(NN3CC(=O)NC3=O)n2)cc1` [WEHI-7326], the Tumor growth result in series [1] is recorded as “effective in reducing tumor growth”. Moreover, the Body weight loss in series [2] (LoVo xenograft mice, 25 mg/kg, 9 doses in total) is ~ 6%. For the same molecule, the Tumor growth inhibition in series [2] (LoVo xenograft, 25 mg/kg biweekly i.v.) was 60%. This molecule also returned a half-inhibitory concentration (IC50) at 48 h in “HepG2 cytotoxic assay” greater than 40 µM. In addition, in series [3], the Median survival came out at 44 days.

Broadly, the IC50 is the concentration that gives 50% inhibition.

The record behind these values is article PMC7955127, “Preclinical small molecule WEHI-7326 overcomes drug resistance and elicits response in patient-derived xenograft models of human treatment-refractory tumors” (Cell Death & Disease, 2021).
